These results are taken from patent US7709488B2, “Imidazopyridine-derivatives as inducible no-synthase inhibitors” (Altana Pharma AG, priority 2003, dated 2010).

In series [1] the target is human inducible NO-synthase (Homo sapiens, UniProt P35228). Kind of series: Measurement of inducible NO-synthase activity ([3H]arginine conversion, crude cytosolic fraction). The class given is biochemical. The conditions noted are these: 0.1 μM arginine, 45 to 60 min at 37° C., pH 7.2; read-out: Inhibition of iNOS activity [measured as −logIC50 (mol/l)] (converted). Here is the method:
Measurement of Inducible NO-Synthase Activity
The assay is performed in 96-well microtiter F-plates (Greiner, Frickenhausen, FRG) in a total volume of 100 μl in the presence of 100 nM calmodulin, 226 μM CaCl2, 477 μM MgCl2, 5 μM flavin-adenine-dinucleotide (FAD), 5 μM flavin mononucleotide (FMN), 0.1 mM NADPH, 7 mM glutathione, 10 μM BH4 and 100 mM HEPES pH 7.2. Arginine concentrations are 0.1 μM for enzyme inhibition experiments. 150000 dpm of [^3H]arginine are added to the assay mixture. Enzyme reaction is started by the addition of 4 μg of a crude cytosolic fraction containing human inducible NO-synthase and the reaction mixture is incubated for 45 to 60 min at 37° C. Enzyme reaction is stopped by adding 10 μl of 2M MES-buffer pH 5.0. 50 μl of the incubation mixture are transferred into a MADP N65 filtration microtiter plate (Millipore, Eschbom, FRG) containing already 50 μl of AG-50W-X8 cation exchange resin (Biorad, München, FRG). The resin in the Na loaded form is pre-equilibrated in water and 70 μl (corresponding to 50 μl dry beads) are pipetted under heavy stirring with a 8 channel pipette into the filtration plate. After pipetting 50 μl of the enzyme reaction mixture onto the filtration plates, the plates are placed on a filtration manifold (Porvair, Shepperton, UK) and the flow through is collected in Pico scintillation plates (Packard, Meriden, Conn.). The resin in the filtration plates is washed with 75 μl of water (1×50 μl and 1×25 μl) which is also collected in the same plate as the sample. The total flow through of 125 μl is mixed with 175 μl of Microscint-40 scintillation cocktail (Packard) and the scintillation plate is sealed with TopSeal P-foil (Packard). Scintillation plates are counted in a scintillation counter.
For the measurement of inducible NO-synthase-inhibiting potencies of compounds increasing concentrations of inhibitors were included into the incubation mixture. IC50-values were calculated from the percent inhibition at given concentrations by nonlinear least square fitting.
The inhibitory values determined for the compounds according to the invention follow from the following table A, in which the compound numbers correspond to the example numbers.

As usually defined, the melting point is the temperature of the solid-liquid transition. `COc1ccnc(CCc2nc3cc(-c4ccc(S(=O)(=O)N(C)C)cc4C)cnc3[nH]2)c1` [Compound 23, 4-{2-[2-(4-Methoxypyridin-2-yl)ethyl]-3H-imidazo[4,5-b]pyridin-6-yl}-N,N-dimethyl-3-methyl-benzenesulfonamide]: the melting point lay within 179 to 180 °C. Moreover, in series [1], the IC50 is 67.6 nM.
On the same counts, the results for `COc1ccnc(CCc2nc3cc(-c4ccc(S(=O)(=O)Nc5ccc(C)cc5)cc4)cnc3[nH]2)c1` [Compound 25, 4-{2-[2-(4-Methoxypyridin-2-yl)ethyl]-3H-imidazo[4,5-b]pyridin-6-yl}-N-p-tolyl-benzenesulfonamide] are 219 to 220 °C and 43.7 nM.
`COc1ccnc(CCc2nc3cc(-c4ccc(S(=O)(=O)Nc5ccccc5OC)cc4)cnc3[nH]2)c1` [Compound 26, 4-{2-[2-(4-Methoxypyridin-2-yl)ethyl]-3H-imidazo[4,5-b]pyridin-6-yl}-N-(2-methoxyphenyl)-benzenesulfonamide]: the melting point lay in the range of 215 to 216 °C. For the same compound, in series [1], the IC50 was 34.7 nM.
Taken in the same sequence, the figures for `COc1ccnc(CCc2nc3cc(-c4ccc(S(=O)(=O)Nc5ccc(N(C)C)cc5)cc4)cnc3[nH]2)c1` [Compound 27, N-(4-Dimethylamino-phenyl)-4-{2-[2-(4-methoxypyridin-2-yl)ethyl]-3H-imidazo-[4,5-b]pyridin-6-yl}benzenesulfonamid] were 221 to 222 °C and 45.7 nM.
